According to US6737383B1, “Herbicidal oxadiazolidines” (priority 1999, dated 2004):

Key:
[1] = tested on: sugar beet; assay: Test B pre/postemergence sugar beet; format: in vivo, Beta vulgaris
Method in brief: (§1)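 Herbicidal effect was estimated by eye on a ten-point control scale after plants spent twelve to sixteen days in a greenhouse following soil or foliar treatment. Foliar sprays targeted plants at one to four leaves; all doses were formulated in a non-phytotoxic solvent with surfactant.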

[2] = tested on: morningglory; assay: Test B pre/postemergence morningglory; format: in vivo, Ipomoea hederacea
Method in brief: as §1

[3] = tested on: giant foxtail; assay: Test B pre/postemergence giant foxtail; format: in vivo, Setaria faberii
Method in brief: as §1

[4] = tested on: rice; assay: Test B flood test rice; format: in vivo, Oryza sativa
Method in brief: (§2)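 Read-out is a visual response score from 0 (no effect) to 10 (complete control), assigned by comparison with untreated controls. Treatment was applied at the 2-leaf stage, and plants stayed in the greenhouse for twelve to sixteen days before scoring.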

[5] = tested on: soybean; assay: Test B pre/postemergence soybean; format: in vivo, Glycine max
Method in brief: as §1

[6] = tested on: purple nutsedge; assay: Test B pre/postemergence purple nutsedge; format: in vivo, Cyperus rotundus
Method in brief: as §1

[7] = tested on: blackgrass; assay: Test B pre/postemergence blackgrass; format: in vivo, Alopecurus myosuroides
Method in brief: as §1

[8] = tested on: wheat; assay: Test B pre/postemergence wheat; format: in vivo, Triticum aestivum
Method in brief: as §1

[9] = tested on: corn; assay: Test B pre/postemergence corn; format: in vivo, Zea mays
Method in brief: as §1

[10] = tested on: smallflower flatsedge; assay: Test B flood test smallflower flatsedge; format: in vivo, Cyperus difformis
Method in brief: as §2

[11] = tested on: crabgrass; assay: Test B pre/postemergence crabgrass; format: in vivo, Digitaria sanguinalis
Method in brief: as §1

[12] = tested on: velvetleaf; assay: Test B pre/postemergence velvetleaf; format: in vivo, Abutilon theophrasti
Method in brief: as §1

[13] = tested on: duck salad; assay: Test B flood test duck salad; format: in vivo, Heteranthera limosa
Method in brief: as §2

[14] = tested on: cocklebur; assay: Test B pre/postemergence cocklebur; format: in vivo, Xanthium strumarium
Method in brief: as §1

[15] = tested on: rape; assay: Test B pre/postemergence rape; format: in vivo, Brassica napus
Method in brief: as §1

[16] = tested on: pigweed; assay: Test B pre/postemergence pigweed; format: in vivo, Amaranthus retroflexus
Method in brief: as §1

[17] = Postemergence, Rate 250 g/ha, scale 0 to 10
[18] = Postemergence, Rate 500 g/ha, scale of 0 to 10 where 0 is no effect and 10 is complete control
[19] = Preemergence, Rate 62 g/ha, scale 0 to 10 (0 no effect, 10 complete control)
[20] = Preemergence, Rate 125 g/ha, scale of 0 to 10 where 0 is no effect and 10 is complete control
[21] = Preemergence, Rate 250 g/ha, scale 0 to 10, 0 is no effect, 10 is complete control
[22] = Preemergence, Rate 500 g/ha, scale 0 to 10, 0 is no effect, 10 is complete control
[23] = Rate 125 g/ha, Postemergence, scale 0 to 10, 0 is no effect, 10 is complete control
[24] = Rate 62 g/ha, Postemergence, scale of 0 to 10 where 0 is no effect and 10 is complete control
[25] = Postemergence block (flood test species), Rate 250 g/ha, scale 0 to 10
[26] = Postemergence section (flood test species), Rate 500 g/ha, scale of 0 to 10 where 0 is no effect and 10 is complete control
[27] = Rate 125 g/ha, Postemergence section (flood test species), scale 0 to 10, 0 is no effect, 10 is complete control

CC(C)N(C(=O)n1oc(=O)n(C[Si](C)(C)c2ccccc2)c1=O)c1ccc(Cl)cc1 [Compound 424]
Sugarbeets plant response rating [1, 17]: 0
Sugarbeets plant response rating [1, 18]: 0
Plant response rating, Sugarbeets [1, 19]: 0
Plant response rating, Sugarbeets [1, 20]: 0
Sugarbeets plant response rating [1, 21]: 0
Sugarbeets plant response rating [1, 22]: 0
Sugarbeets plant response rating [1, 23]: 0
Morningglory plant response rating [2, 17]: 0
Morningglory plant response rating [2, 18]: 1
Plant response rating, Morningglory [2, 19]: 0
Plant response rating, Morningglory [2, 20]: 0
Morningglory plant response rating [2, 21]: 0
Morningglory plant response rating [2, 22]: 0
Morningglory plant response rating [2, 23]: 0
Giant foxtail plant response rating [3, 17]: 0
Giant foxtail plant response rating [3, 18]: 0
Plant response rating, Giant foxtail [3, 19]: 0
Plant response rating, Giant foxtail [3, 20]: 0
Giant foxtail plant response rating [3, 21]: 0
Giant foxtail plant response rating [3, 22]: 0
Giant foxtail plant response rating [3, 24]: 0
Giant foxtail plant response rating [3, 23]: 0
Rice plant response rating [4, 25]: 0
Rice plant response rating [4, 26]: 0
Rice plant response rating [4, 27]: 0
Soybean plant response rating [5, 17]: 1
Soybean plant response rating [5, 18]: 2
Plant response rating, Soybean [5, 19]: 0
Plant response rating, Soybean [5, 20]: 0
Soybean plant response rating [5, 21]: 0
Soybean plant response rating [5, 22]: 0
Soybean plant response rating [5, 23]: 0
Nutsedge plant response rating [6, 17]: 0
Nutsedge plant response rating [6, 18]: 0
Plant response rating, Nutsedge [6, 19]: 0
Plant response rating, Nutsedge [6, 20]: 0
Nutsedge plant response rating [6, 21]: 0
Nutsedge plant response rating [6, 22]: 0
Nutsedge plant response rating [6, 23]: 0
Blackgrass plant response rating [7, 17]: 0
Blackgrass plant response rating [7, 18]: 0
Plant response rating, Blackgrass [7, 19]: 0
Plant response rating, Blackgrass [7, 20]: 0
Blackgrass plant response rating ([7]; Preemergence, Rate 250 g/ha, scale of 0 to 10 where 0 is no effect and 10 is complete control): 0
Blackgrass plant response rating [7, 22]: 0
Blackgrass plant response rating [7, 24]: 0
Blackgrass plant response rating [7, 23]: 0
Wheat plant response rating [8, 17]: 0
Wheat plant response rating [8, 18]: 0
Plant response rating, Wheat [8, 19]: 0
Plant response rating, Wheat [8, 20]: 0
Wheat plant response rating [8, 21]: 0
Wheat plant response rating [8, 22]: 0
Wheat plant response rating [8, 23]: 0
Corn plant response rating [9, 17]: 0
Corn plant response rating [9, 18]: 0
Plant response rating, Corn [9, 19]: 0
Plant response rating, Corn [9, 20]: 0
Corn plant response rating [9, 21]: 0
Corn plant response rating [9, 22]: 0
Corn plant response rating [9, 24]: 0
Corn plant response rating [9, 23]: 0
S. Flatsedge plant response rating [10, 25]: 0
S. Flatsedge plant response rating [10, 26]: 0
S. Flatsedge plant response rating [10, 27]: 0
Crabgrass plant response rating [11, 17]: 0
Crabgrass plant response rating [11, 18]: 0
Plant response rating, Crabgrass [11, 19]: 0
Plant response rating, Crabgrass [11, 20]: 0
Crabgrass plant response rating [11, 21]: 0
Crabgrass plant response rating [11, 22]: 0
Crabgrass plant response rating [11, 24]: 0
Crabgrass plant response rating [11, 23]: 0
Velvetleaf plant response rating [12, 17]: 0
Velvetleaf plant response rating [12, 18]: 0
Plant response rating, Velvetleaf [12, 19]: 0
Plant response rating, Velvetleaf [12, 20]: 0
Velvetleaf plant response rating [12, 21]: 0
Velvetleaf plant response rating [12, 22]: 0
Velvetleaf plant response rating [12, 23]: 0
Ducksalad plant response rating [13, 25]: 0
Ducksalad plant response rating [13, 26]: 0
Ducksalad plant response rating ([13]; Rate 62 g/ha, Postemergence (flood test species), scale of 0 to 10 where 0 is no effect and 10 is complete control): 0
Ducksalad plant response rating [13, 27]: 0
Cocklebur plant response rating [14, 17]: 0
Cocklebur plant response rating [14, 18]: 0
Plant response rating, Cocklebur [14, 19]: 0
Plant response rating, Cocklebur [14, 20]: 0
Cocklebur plant response rating [14, 21]: 0
Cocklebur plant response rating [14, 22]: 0
Cocklebur plant response rating [14, 24]: 0
Cocklebur plant response rating [14, 23]: 0
Rape plant response rating [15, 17]: 0
Rape plant response rating [15, 18]: 0
Plant response rating, Rape [15, 19]: 0
Plant response rating, Rape [15, 20]: 0
Rape plant response rating [15, 21]: 0
Rape plant response rating [15, 22]: 0
Rape plant response rating [15, 23]: 0
Redroot pigweed plant response rating [16, 17]: 0
Redroot pigweed plant response rating [16, 18]: 0
Plant response rating, Redroot pigweed [16, 19]: 0
Plant response rating, Redroot pigweed [16, 20]: 0
Redroot pigweed plant response rating [16, 21]: 0
Redroot pigweed plant response rating [16, 22]: 0
Redroot pigweed plant response rating [16, 23]: 0
